Earlier results as cited in patent publication US12564551B2, “Composition or oat extract comprising avenanthramide and β-glucan” (SYMRISE AG, priority 2020, dated 2026).

Conditions: Avn C, followed by Avn B and Avn A

O=C(C=Cc1ccc(O)c(O)c1)Nc1ccc(O)cc1C(=O)O [Avn C, N-(3′,4′-dihydroxycinnamoyl)-5-hydroxyanthranilic acid]
antioxidant activity, rank among Avns (in words): highest activity
